Values joined by “and” are separate entries in the source; they are usually repeats but may differ in a detail not shown here. Equal values may be shown once. Inconclusive results and toxic doses are left out. The calls were made as follows: active = survival T/C of 150% or more; inactive = T/C below 125% in these data.
System: P388 leukemia ip, CD2F1 mice, survival T/C
Assay: NCI In Vivo Anticancer Drug Screen. Data for tumor model P388 Leukemia (intraperitoneal) in CD2F1 (CDF1) mice
Conditions: endpoint: median survival time, higher = longer survival
How it was run: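 Mice carrying the transplanted tumor received test compound or vehicle. Survival was recorded in each group, and the value is the treated-group measurement divided by that of the vehicle-treated control group.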

[1] = dose: 60.0 mg/kg/injection, schedule: Q01DX005 (ip), vehicle: Klucel (hydroxypropylcellulose) (HPC)
[2] = dose: 120.0 mg/kg/injection, schedule: Q01DX005 (ip), vehicle: Klucel (hydroxypropylcellulose) (HPC)
[3] = dose: 240.0 mg/kg/injection, schedule: Q01DX005 (ip), vehicle: Klucel (hydroxypropylcellulose) (HPC)
[4] = dose: 100.0 mg/kg/injection, schedule: Q04DX002 (ip), vehicle: saline
[5] = dose: 200.0 mg/kg/injection, schedule: Q04DX002 (ip), vehicle: saline
[6] = dose: 50.0 mg/kg/injection, schedule: Q01DX009 (ip), vehicle: saline with Tween-80
[7] = dose: 100.0 mg/kg/injection, schedule: Q01DX009 (ip), vehicle: saline with Tween-80
[8] = dose: 200.0 mg/kg/injection, schedule: Q01DX009 (ip), vehicle: saline with Tween-80
[9] = dose: 50.0 mg/kg/injection, schedule: Q01DX005 (ip), vehicle: saline
[10] = dose: 100.0 mg/kg/injection, schedule: Q01DX005 (ip), vehicle: saline
[11] = dose: 200.0 mg/kg/injection, schedule: Q01DX005 (ip), vehicle: saline
[12] = dose: 50.0 mg/kg/injection, schedule: Q01DX005 (ip), vehicle: saline with Tween-80
[13] = dose: 100.0 mg/kg/injection, schedule: Q01DX005 (ip), vehicle: saline with Tween-80
[14] = dose: 200.0 mg/kg/injection, schedule: Q01DX005 (ip), vehicle: saline with Tween-80
[15] = dose: 15.0 mg/kg/injection, schedule: Q01DX005 (ip), vehicle: Klucel + Tween-80
[16] = dose: 30.0 mg/kg/injection, schedule: Q01DX005 (ip), vehicle: Klucel + Tween-80
[17] = dose: 60.0 mg/kg/injection, schedule: Q01DX005 (ip), vehicle: Klucel + Tween-80

Measured: T/C

C/C(=N\O)c1ccccn1
inactive: dose: 25.0 mg/kg/injection, schedule: Q01DX009 (ip), vehicle: water 100 % of control | dose: 50.0 mg/kg/injection, schedule: Q01DX009 (ip), vehicle: water 98 % of control | dose: 100.0 mg/kg/injection, schedule: Q01DX009 (ip), vehicle: water 98 % of control | dose: 200.0 mg/kg/injection, schedule: Q01DX009 (ip), vehicle: water 100 % of control | dose: 400.0 mg/kg/injection, schedule: Q01DX009 (ip), vehicle: water 106 % of control

c1cc[n+](CCC2OCCO2)cc1
inactive: dose: 12.5 mg/kg/injection, schedule: Q01DX009 (ip), vehicle: saline 109 % of control | dose: 25.0 mg/kg/injection, schedule: Q01DX009 (ip), vehicle: saline 109 % of control | dose: 50.0 mg/kg/injection, schedule: Q01DX009 (ip), vehicle: saline 100 % of control | dose: 100.0 mg/kg/injection, schedule: Q01DX009 (ip), vehicle: saline 108 % of control

O=C(O)c1ccccc1Oc1ccccc1C(=O)O
inactive: dose: 100.0 mg/kg/injection, schedule: Q04DX003 (ip), vehicle: saline 100 % of control | dose: 200.0 mg/kg/injection, schedule: Q04DX003 (ip), vehicle: saline 100 % of control | dose: 400.0 mg/kg/injection, schedule: Q04DX003 (ip), vehicle: saline 100 % of control

Cn1cnc2c1c(=O)n(N)c(=O)n2C
inactive: [1] 102 % of control | [2] 98 % of control | [3] 92 % of control

COc1cc(/C=C(/NC(=O)c2ccccc2)C(O)=C(C#N)C#N)ccc1O
inactive: dose: 60.0 mg/kg/injection, schedule: Q01DX005 (ip), vehicle: saline 95 % of control | dose: 120.0 mg/kg/injection, schedule: Q01DX005 (ip), vehicle: saline 91 % of control

O=C(O)/C=C(\Br)C(=O)O
inactive: [4] 95 % of control | [5] 90 % of control

CCCCCCC(=O)/C=C/c1cc(OC)c(OC)cc1OC
inactive: [6] 100 % of control | [7] 94 % of control | [8] 96 % of control

CCN(CC)CCN1C(=O)[C@H]2CC=CC[C@H]2C1=O
inactive: [9] 99 % of control | [10] 105 % of control | [11] 97 % of control

CC(=O)OC1(C)CC1(C)C (centres undefined)
inactive: [12] 100 % of control | [13] 98 % of control | [14] 98 % of control

Nc1nccc(NCCCCCCNc2ccnc(N)n2)n1
inactive: dose: 12.5 mg/kg/injection, schedule: Q04DX002 (ip), vehicle: saline 104 % of control and 108 % of control | dose: 25.0 mg/kg/injection, schedule: Q04DX002 (ip), vehicle: saline 106 % of control and 114 % of control | dose: 50.0 mg/kg/injection, schedule: Q04DX002 (ip), vehicle: saline 105 % of control and 114 % of control | [4] 114 % of control and 119 % of control | [5] 116 % of control and 123 % of control

CCc1noc2cc(-c3ccccc3)n(C)c(=O)c12
inactive: dose: 50.0 mg/kg/injection, schedule: Q01DX005 (ip), vehicle: Klucel (hydroxypropylcellulose) (HPC) 100 % of control | dose: 100.0 mg/kg/injection, schedule: Q01DX005 (ip), vehicle: Klucel (hydroxypropylcellulose) (HPC) 104 % of control | dose: 200.0 mg/kg/injection, schedule: Q01DX005 (ip), vehicle: Klucel (hydroxypropylcellulose) (HPC) 105 % of control

NC(=N\N=C\C(O)C(O)C(O)C(O)C(=O)O)/C(N)=N/N=C/C(O)C(O)C(O)C(O)C(=O)O (centres undefined)
inactive: [9] 101 % of control | [10] 104 % of control | [11] 101 % of control

CCN(CC)CCOCCOC1CC2CCC1(C)C2(C)C (centres undefined)
inactive: [9] 99 % of control | [10] 96 % of control

NC(=S)N/N=C1/CCCC/C1=N/O
inactive: dose: 60.0 mg/kg/injection, schedule: Q01DX005 (ip), vehicle: saline with Tween-80 100 % of control | dose: 120.0 mg/kg/injection, schedule: Q01DX005 (ip), vehicle: saline with Tween-80 100 % of control

COc1ccc(-c2sc(C)nc2O)cc1
inactive: [6] 101 % of control | [7] 94 % of control | [8] 98 % of control

[N-]=[N+]=NCCN(Cc1ccccc1)Cc1ccccc1
inactive: [12] 104 % of control | [13] 104 % of control | [14] 114 % of control

Nc1ncnc2c1ccn2C1OC(CSCCC(N)C(=O)O)C(O)C1O (centres undefined)
inactive: dose: 0.5 mg/kg/injection, schedule: Q01DX009 (ip), vehicle: water 98 % of control | dose: 1.0 mg/kg/injection, schedule: Q01DX009 (ip), vehicle: water 102 % of control | dose: 2.0 mg/kg/injection, schedule: Q01DX009 (ip), vehicle: water 97 % of control | dose: 4.0 mg/kg/injection, schedule: Q01DX009 (ip), vehicle: water 93 % of control | dose: 8.0 mg/kg/injection, schedule: Q01DX009 (ip), vehicle: water 104 % of control

CCOc1c(N=Nc2ccccc2OC)c(C)nn1C(=S)SC
inactive: [15] 92 % of control | [16] 92 % of control | [17] 90 % of control

CC1OC(O[C@H]2C[C@](O)(C(C)O)Cc3c(O)c4c(c(O)c32)C(=O)c2c(O)cccc2C4=O)CC(NC=O)C1O (some centres undefined)
inactive: dose: 0.16 mg/kg/injection, schedule: Q04DX003 (ip), vehicle: water 118 % of control | dose: 0.32 mg/kg/injection, schedule: Q04DX003 (ip), vehicle: water 113 % of control | dose: 0.33 mg/kg/injection, schedule: Q04DX003 (ip), vehicle: water 103 % of control | dose: 0.65 mg/kg/injection, schedule: Q04DX003 (ip), vehicle: water 111 % of control | dose: 1.29 mg/kg/injection, schedule: Q04DX003 (ip), vehicle: water 115 % of control | dose: 2.58 mg/kg/injection, schedule: Q04DX003 (ip), vehicle: water 123 % of control

CC(=O)C(/C=N\N=C(/C)c1cn[nH]c1C)=C(/C)O
inactive: [1] 96 % of control | [2] 92 % of control | [3] 89 % of control

O=c1[nH]c2cc(Cl)ccc2nc1/C=C(\O)c1cccc(O)c1
inactive: [15] 106 % of control | [16] 94 % of control | [17] 101 % of control and 88 % of control

CCCCCSC1=NC(c2ccc(C)cc2)(c2ccc(C)cc2)C(=O)N1
inactive: dose: 50.0 mg/kg/injection, schedule: Q01DX005 (ip), vehicle: Klucel + Tween-80 100 % of control | dose: 100.0 mg/kg/injection, schedule: Q01DX005 (ip), vehicle: Klucel + Tween-80 100 % of control | dose: 200.0 mg/kg/injection, schedule: Q01DX005 (ip), vehicle: Klucel + Tween-80 98 % of control

COc1cc2ccc3c4cc(OC)c(OC)cc4c[n+](C)c3c2cc1O
inactive: dose: 50.0 mg/kg/injection, schedule: Q04DX009 (ip), vehicle: Klucel (hydroxypropylcellulose) (HPC) 117 % of control | dose: 100.0 mg/kg/injection, schedule: Q04DX009 (ip), vehicle: Klucel (hydroxypropylcellulose) (HPC) 122 % of control

CC(C)(O)C1OCC(C2CCC3(C)C4=CCC5C(C)(C)C(O)CCC5(C)C4CCC23C)CC1O (centres undefined)
inactive: dose: 2.5 mg/kg/injection, schedule: Q01DX009 (ip), vehicle: alcohol 98 % of control | dose: 5.0 mg/kg/injection, schedule: Q01DX009 (ip), vehicle: alcohol 101 % of control | dose: 10.0 mg/kg/injection, schedule: Q01DX009 (ip), vehicle: alcohol 100 % of control | dose: 20.0 mg/kg/injection, schedule: Q01DX009 (ip), vehicle: alcohol 99 % of control | dose: 40.0 mg/kg/injection, schedule: Q01DX009 (ip), vehicle: alcohol 110 % of control

— PubChem BioAssay AID330 (DTP/NCI, 2004)
